Results on 65 molecules are retold here after US10011573B2, “Human androgen receptor DNA-binding domain (DBD) compounds as therapeutics and methods for their use” (The University of British Columbia, priority 2014, dated 2018).

For the assay, the target named is T1, androgen receptor (AR) (Homo sapiens, UniProt P10275, T878A).
T1 sequence (P10275 1-920 T878A): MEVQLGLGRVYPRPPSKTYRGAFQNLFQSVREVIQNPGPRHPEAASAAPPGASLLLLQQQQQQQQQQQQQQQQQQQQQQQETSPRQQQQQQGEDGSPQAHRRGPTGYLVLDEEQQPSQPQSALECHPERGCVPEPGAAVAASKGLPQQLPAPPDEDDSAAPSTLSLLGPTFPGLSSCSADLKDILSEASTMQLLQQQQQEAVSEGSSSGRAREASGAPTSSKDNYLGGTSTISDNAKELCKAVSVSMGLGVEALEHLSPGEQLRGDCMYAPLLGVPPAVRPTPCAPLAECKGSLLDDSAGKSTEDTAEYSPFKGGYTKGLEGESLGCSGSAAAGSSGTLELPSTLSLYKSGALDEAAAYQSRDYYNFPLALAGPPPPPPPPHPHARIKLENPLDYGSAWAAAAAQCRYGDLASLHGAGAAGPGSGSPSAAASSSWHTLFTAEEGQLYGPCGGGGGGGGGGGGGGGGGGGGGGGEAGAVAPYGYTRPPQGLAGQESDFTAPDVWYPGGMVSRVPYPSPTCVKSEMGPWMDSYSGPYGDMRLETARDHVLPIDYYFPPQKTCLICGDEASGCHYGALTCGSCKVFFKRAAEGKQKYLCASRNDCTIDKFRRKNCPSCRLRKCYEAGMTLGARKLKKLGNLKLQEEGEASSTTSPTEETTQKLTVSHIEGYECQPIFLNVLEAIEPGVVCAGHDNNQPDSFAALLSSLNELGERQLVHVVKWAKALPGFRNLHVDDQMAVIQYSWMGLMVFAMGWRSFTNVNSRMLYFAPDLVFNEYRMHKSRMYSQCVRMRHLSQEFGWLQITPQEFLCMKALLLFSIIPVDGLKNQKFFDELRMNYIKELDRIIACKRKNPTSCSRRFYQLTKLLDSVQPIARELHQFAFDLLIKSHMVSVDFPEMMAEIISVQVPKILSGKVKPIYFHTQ
The assay is described as follows: eGFP cellular AR transcription assay (LNCaP eGFP cells, LN-ARR2PB-eGFP). The settings on record: for inhibition at 3 µM: LNCaP, read-out: % Inhibition (3 μM); for IC50: eGFP IC50 (μM); for pIC50: read-out: eGFP IC50; for anti-AR activity (AR transcriptional inhibition) in words: LNCaP (T877A AR); for eGFP IC50: 0.1 nM R1881.

pIC50: −log10 of the molar value. Where two headings read alike, the source gives them in different places.

On to `NC(=S)N/N=C1\Cc2cccc3cccc1c23` [Compound 14005], for which the inhibition (as a rule, the relative decrease from the control value, in per cent) at 3 µM amounted to 92.5%. The IC50 (in general, the midpoint of a concentration-inhibition curve) (LNCaP eGFP cells) turned out to be 2 µM.
As for `CNC(=S)N/N=C1\C(=O)c2cccc3cccc1c23` [Compound 14153], under “LNCaP eGFP cells”, the IC50 stood at 6 µM.
On the same count and under the same terms, under `COc1cc(C)c2occ(/C(C)=N/O)c2c1` [Compound 14017] stands 41.6 µM.
On to `COc1ccc(-c2csc(N3CCOCC3)n2)cc1OC` [Compound 14252], for which the “% Inhibition (3 μM)” value came to 26.03%.
As for `NC(=O)c1ccc(-c2ccc3ccccc3n2)cc1` [Compound 14389], the inhibition at 3 µM was 14.5%.
For `COc1ccc(-c2nc(-c3ccccc3)cs2)cc1` [Compound 14419], the “% Inhibition (3 μM)” value is on record as 119.36% and the negative logarithm of the IC50 (pIC50) (commonly the negative decadic logarithm of the IC50, by convention in mol/L) is 5.21.
For `Cc1ccc(-c2csc(N3CCOCC3)n2)cc1C` [Compound 14294], the inhibition at 3 µM came to 40%. The molecule also displayed an IC50 (Series 1) of 10.3 µM.
As to `Nc1ccccc1CN1C(=O)Cc2ccccc21` [Compound 14082], the inhibition at 3 µM amounted to 93.1%. For the same molecule, the IC50 (LNCaP eGFP cells) stood at 9.5 µM.
For the molecule `CC(C)Oc1c(F)cccc1-c1csc(N2CCOCC2)n1` [Compound 14430], the inhibition at 3 µM turned out to be 106%. Also, it took 5.27 µM to reach half-maximal inhibition (Series 1) (IC50).
In the case of `c1ccc2cc(-c3csc(N4CCOCC4)n3)ccc2c1` [Compound 14231], the “% Inhibition (3 μM)” value is on record as 38.78%.
With `NC(=S)N/N=C1\C(=O)c2cccc3cccc1c23` [Compound 14151], it took 30 µM to reach half-maximal inhibition (LNCaP eGFP cells) (IC50).
Take `c1ccc2c(N3CCOCC3)nccc2c1` [Compound 14112]: the inhibition at 3 µM stood at 9%.
For the molecule `OCc1cccc(-c2ccc3ccccc3n2)c1` [Compound 14388], the inhibition at 3 µM came out at 44.9%. This molecule came in with an IC50 (LNCaP eGFP cells) of 10.4 µM.
`N#Cc1ccc(-c2csc(N3CCOCC3)n2)cc1` [Compound 14457]: the “% Inhibition (3 μM)” value (3 µM) came to 80%.
Consider `Cc1sc(CO)c(-c2csc(N3CCOCC3)n2)c1C` [Compound 14466], for which 0.4 µM corresponded to half-maximal inhibition (Series 1) (IC50).
Turning to `Nc1nc(-c2ccc3c(c2)CCCC3)cs1` [Compound 14198], the inhibition at 3 µM worked out at 54.4%. In addition, the IC50 (LNCaP eGFP cells) worked out at 5.51 µM.
Turning to `FC(F)(F)c1cccc(-c2csc(-c3cnccn3)n2)c1` [Compound 14486], the “% Inhibition (3 μM)” value turned out to be 20.4%.
On the same count and under the same terms, under `Cc1sccc1-c1csc(N2CCOCC2)n1` [Compound 14407] stands 38.00%.
Regarding `Cc1ccccc1CN1C(=O)NC2C=CC=CC21` (stereo not drawn) [Compound 14065], under “LNCaP eGFP cells”, the IC50 is 10 µM.
Turning to `c1ccc2sc(-c3csc(N4CCOCC4)n3)nc2c1` [Compound 14137], the “% Inhibition (3 μM)” value is 37.44%.
As for `Clc1scc(-c2csc(N3CCOCC3)n2)c1Cl` [Compound 14462], the midpoint of inhibition (Series 1), the IC50, lay at 0.11 µM.
For the molecule `Oc1ccc(-c2csc(N3CCOCC3)n2)cc1O` [Compound 14267], the “% Inhibition (3 μM)” value worked out at 19.95%.
With `c1sc(N2CCOCC2)nc1C1CCCCC1` [Compound 14406], the “anti-AR activity (AR transcriptional inhibition) in words” value is “lost their anti-AR activity” and the inhibition at 3 µM worked out at 33%. Further, the “eGFP IC50” value (LNCaP eGFP cells) is on record as “Low activity”.
For the molecule `O=c1[nH]c(N2CCOCC2)cc2ccccc12` [Compound 14453], the inhibition at 3 µM is 17.3%.
`c1ccc(-c2csc(N3CCSCC3)n2)cc1` [Compound 14385] showed an IC50 (Series 1) of 0.6 µM.
For the molecule `c1sc(N2CCOCC2)nc1C1CCCC1` [Compound 14403], the “anti-AR activity (AR transcriptional inhibition) in words” value is “lost their anti-AR activity” and the inhibition at 3 µM was 22%. Further, the “eGFP IC50” value (LNCaP eGFP cells) is “Low activity”.
Turning to `O=C(O)c1csc(N2CCOCC2)n1` [Compound 14502], the inhibition at 3 µM came to 0%.
Consider `NC(=S)NN=C1c2ccccc2-c2ccccc21` [Compound 14205], for which the inhibition at 3 µM came out at 45.8%. Where the note is “LNCaP eGFP cells”, this molecule yielded an IC50 of 7.38 µM.
For `Oc1ccc(-c2csc(N3CCOCC3)n2)c(O)c1` [Compound 14295], the “% Inhibition (3 μM)” value worked out at 24.7%.
In the case of `CC1CN(c2cnc3ccccc3n2)CC(C)O1` (stereo not drawn) [Compound 14487], the inhibition at 3 µM turned out to be 27%.
Regarding `Oc1ccccc1/C=C/c1ccccn1` [Compound 14088], inhibition (LNCaP eGFP cells) was half-maximal at 3.54 µM (IC50).
For the molecule `C[C@@H]1C(=O)N(c2ccccc2)C2C=CC=CC21` (stereo partly drawn) [Compound 14078], the inhibition at 3 µM is 65.4%. The IC50 (LNCaP eGFP cells) turned out to be 20 µM.
In the case of `Fc1ccc(-c2csc(N3CCSCC3)n2)cc1` [Compound 14386], half-maximal inhibition (Series 1) (IC50) was put at 1.6 µM.
Take `NC(=S)N/N=C1\CCCc2ccccc21` [Compound 14175]: the inhibition at 3 µM was found to be 45.5%. Where the note is “LNCaP eGFP cells”, this molecule displayed an IC50 of 13.6 µM.
Molecule `Cc1sc(N2CCOCC2)nc1-c1ccccc1` [Compound 14349] showed an IC50 (Series 1) of 1.47 µM.
As for `c1ccn(-c2csc(N3CCOCC3)n2)c1` [Compound 14411], the “% Inhibition (3 μM)” value came to 44.00%.
Consider `Oc1ccc(-c2csc(-c3ccccc3)n2)cc1` [Compound 14420], for which the inhibition at 3 µM is 125%. The molecule also yielded an IC50 (Series 1) of 3.73 µM.
The molecule `CS(=O)(=O)c1c(F)cccc1-c1csc(N2CCOCC2)n1` [Compound 14429] returned an IC50 (Series 1) of 3.55 µM.
Regarding `Nc1ccc2nc(-c3cccc(O)c3)sc2c1` [Compound 14387], the inhibition at 3 µM turned out to be 109%. Moreover, half-maximal inhibition (LNCaP eGFP cells) (IC50) was put at 14.8 µM.
Regarding `COc1ccc(-c2csc(N3CCOCC3)n2)cc1` [Compound 14249], the “% Inhibition (3 μM)” value is given as 45.16%.
As to `NC(=O)N1CCN(c2nc(-c3ccccc3)cs2)CC1` [Compound 14339], the “% Inhibition (3 μM)” value came out at 15.82%.
As for `Oc1ccccc1-c1ccc2cccnc2n1` [Compound 14336], the inhibition at 3 µM was found to be 27.1%.
For `c1ccc2sc(N3CCOCC3)nc2c1` [Compound 14393], the inhibition at 3 µM is 31.2%. Besides, where the note is “LNCaP eGFP cells”, the half-inhibitory concentration (IC50) stood at 46.6 µM.
Take `CSc1ccc(-c2csc(N3CCOCC3)n2)cc1` [Compound 14297]: the “% Inhibition (3 μM)” value is given as 109.99%.
In the case of `c1cc2c(cc1-c1csc(N3CCOCC3)n1)CCCC2` [Compound 14291], the “anti-AR activity (AR transcriptional inhibition) in words” value is recorded as “lost their anti-AR activity” and the inhibition at 3 µM was found to be 18.6%. Moreover, the “eGFP IC50” value (LNCaP eGFP cells) is “Low activity”.
`c1cc2c3c(ccc(-c4ccn[nH]4)c3c1)CC2` [Compound 14053] registered an IC50 (LNCaP eGFP cells) of 4 µM.
Regarding `Clc1ccc(-c2csc(N3CCOCC3)n2)cc1` [Compound 14253], the inhibition at 3 µM amounted to 38.2%. This molecule returned an IC50 (Series 1) of 39.9 µM.
`NC(=S)NN=C(c1ccccc1)c1ccccc1` [Compound 14172]: the inhibition at 3 µM was found to be 46.4%. For the same molecule, the IC50 (LNCaP eGFP cells) worked out at 29.4 µM.
For `c1ccc(-c2csc(-c3c[nH]c4ccccc34)n2)cc1` [Compound 14361], the inhibition at 3 µM came out at 41.6%. Further, half-maximal inhibition (Series 1) (IC50) required 10.1 µM.
Take `NC(=S)N/N=C/c1cccc2ccccc12` [Compound 14164]: the inhibition at 3 µM was found to be 86.8%. Besides, for the setting “LNCaP eGFP cells”, the IC50 was determined as 3.04 µM.
As to `Fc1ccc(-c2csc(N3CCNCC3)n2)cc1` [Compound 14340], the “% Inhibition (3 μM)” value was determined as 16.12%.
With `Cc1cc(N2CCOCC2)nc2ccccc12` [Compound 14434], the IC50 (LNCaP eGFP cells) stood at 1.09 µM.
As to `Cc1ccc(-c2nc(N3CCOCC3)sc2C)cc1` [Compound 14284], the “% Inhibition (3 μM)” value was 30.22%.
The same measure, in the same setting: in the case of `O=C1C(Cl)=C(N2CCOCC2)C(=O)N1c1ccccc1Cl` [Compound 14475] it was 8.89%.
Turning to `N#Cc1ccc(-c2csc(N3CCOCC3)n2)cc1` [Compound 14261], for the setting “3 µM”, the “% Inhibition (3 μM)” value was 25.48%.
For the setting “LNCaP eGFP cells”, `N#Cc1cc2ccccc2nc1N1CCOCC1` [Compound 14433] showed an IC50 of 1.95 µM.
Consider `CC1CCCN(c2nc(-c3ccc(O)cc3O)cs2)C1` (stereo not drawn) [Compound 14301], for which the inhibition at 3 µM came to 60%. For the same molecule, the IC50 (Series 1) came to 5 µM.
As for `CC1CN(c2nc(-c3ccc(Cl)cc3)cs2)C(C)CO1` (stereo not drawn) [Compound 14248], the “% Inhibition (3 μM)” value turned out to be 4.73%.
Same read-out and setting: in the case of `O=C1C(Cl)=C(N2CCOCC2)C(=O)N1c1ccccc1` [Compound 14476] it was 9.79%.
For `c1ccc2c(c1)ncn2-c1csc(N2CCOCC2)n1` [Compound 14509], the pIC50 is 5.93.
`COc1ccc(-c2csc(-c3c[nH]c4ccccc34)n2)cc1` [Compound 14443]: the “% Inhibition (3 μM)” value stood at 25.15%.
Still for that read-out and setting: under `Nc1ccc(-c2csc(N3CCOCC3)n2)cc1` [Compound 14256] stands 28.14%.
Same read-out and setting: under `c1cc2c(cc1-c1csc(N3CCOCC3)n1)COC2` [Compound 14282] stands 29.04%.
With `C/C(=N/O)c1ccc2c(C)ccc3c2c1CC3` [Compound 14171], the inhibition at 3 µM came to 99.6%. For the same molecule, the IC50 (LNCaP eGFP cells) was found to be 3.38 µM.
On to `Fc1ccccc1-c1csc(N2CCOCC2)n1` [Compound 14286], for which the “% Inhibition (3 μM)” value turned out to be 85.86%.
